Experimental data from patent publication US10457703B2, “Bile acid derivatives as FXR/TGR5 agonists and methods of use thereof” (ENANTA PHARMACEUTICALS, INC., priority 2015, dated 2019).
pEC50: −log10 of the molar value.

Biological target: human FXR (NR1H4) (Homo sapiens (Human), UniProt Q96RI1)
Test: Human FXR (NR1H4) Assay (Gal4 promoter driven luciferase reporter, Indigo Bioscience kit);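 as to Efficacy (%): 100% equals the efficacy of CDCA; efficacy normalized to CDCA set as 100%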
Assay type: cell-based
Conditions: for pEC50: Human FXR (NR1H4) Assay, potency ranges; for Emax: read-out: Efficacy (%)
Procedure, shortened: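 CHO reporter cells expressing human FXR with an FXR-responsive luciferase reporter, treated with compound doses at 0.2% DMSO. Incubation lasted 22 h at 37 °C before luciferase detection reagent was added. Luminescence was then read.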

Chain of human FXR (NR1H4) (Q96RI1 whole entry, the tested form may be a part): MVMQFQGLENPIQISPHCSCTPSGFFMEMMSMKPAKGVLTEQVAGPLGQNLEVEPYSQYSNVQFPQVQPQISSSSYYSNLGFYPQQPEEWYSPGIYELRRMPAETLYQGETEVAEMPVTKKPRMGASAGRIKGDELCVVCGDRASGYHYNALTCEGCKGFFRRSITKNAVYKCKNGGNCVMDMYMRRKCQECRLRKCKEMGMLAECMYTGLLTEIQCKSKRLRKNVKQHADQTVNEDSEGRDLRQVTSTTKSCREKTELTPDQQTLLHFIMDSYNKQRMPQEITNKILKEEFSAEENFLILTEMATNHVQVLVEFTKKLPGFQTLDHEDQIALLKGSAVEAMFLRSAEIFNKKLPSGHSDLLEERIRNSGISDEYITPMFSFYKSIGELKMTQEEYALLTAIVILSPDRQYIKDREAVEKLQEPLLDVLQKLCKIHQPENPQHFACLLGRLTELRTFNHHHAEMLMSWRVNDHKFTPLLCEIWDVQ

CC[C@H]1[C@@H](O)[C@@H]2[C@H](CC[C@]3(C)[C@@H]([C@H](C)CCOC(=O)N[C@H]4CC[C@H](O)CC4)CC[C@@H]23)[C@@]2(C)CC[C@@H](O)C[C@@H]12 [Example 185]
pEC50: 6.00 to 7.00
Emax: 392%

CC[C@H]1[C@@H](O)[C@@H]2[C@H](CC[C@]3(C)[C@@H]([C@H](C)COC(=O)NC4CC4)CC[C@@H]23)[C@@]2(C)CC[C@@H](O)C[C@@H]12 [Example 198]
pEC50: 5.00 to 6.00
Emax: 139%

CC[C@H]1[C@@H](O)[C@@H]2[C@H](CC[C@]3(C)[C@@H]([C@H](C)CCOC(=O)NS(=O)(=O)c4cccc(OC(F)(F)F)c4)CC[C@@H]23)[C@@]2(C)CC[C@@H](O)C[C@@H]12 [Example 63]
pEC50: > 7.00
Emax: 396%

CC[C@H]1[C@@H](O)[C@@H]2[C@H](CC[C@]3(C)[C@@H]([C@H](C)COC(=O)NS(=O)(=O)N(C)C)CC[C@@H]23)[C@@]2(C)CC[C@@H](O)C[C@@H]12 [Example 7]
pEC50: 5.00 to 6.00
Emax: 168%

CC[C@H]1[C@@H](O)[C@@H]2[C@H](CC[C@]3(C)[C@@H]([C@H](C)CCOC(=O)NC4CC4)CC[C@@H]23)[C@@]2(C)CC[C@@H](O)C[C@@H]12 [Example 123]
pEC50: > 7.00
Emax: 379%

CC[C@H]1[C@@H](O)[C@@H]2[C@H](CC[C@]3(C)[C@@H]([C@H](C)CCOC(=O)N(C)C)CC[C@@H]23)[C@@]2(C)CC[C@@H](O)C[C@@H]12 [Example 129]
pEC50: 6.00 to 7.00
Emax: 323%

CC[C@H]1[C@@H](O)[C@@H]2[C@H](CC[C@]3(C)[C@@H]([C@H](C)COC(=O)NS(=O)(=O)c4cccc(OC(C)(C)C)c4)CC[C@@H]23)[C@@]2(C)CC[C@@H](O)C[C@@H]12 [Example 29]
pEC50: 6.00 to 7.00
Emax: 186%

CC[C@H]1[C@@H](O)[C@@H]2[C@H](CC[C@]3(C)[C@@H]([C@H](C)CCOC(=O)NS(=O)(=O)c4cccc5ccccc45)CC[C@@H]23)[C@@]2(C)CC[C@@H](O)C[C@@H]12 [Example 81]
pEC50: > 7.00
Emax: 372%

CC[C@H]1[C@@H](O)[C@@H]2[C@H](CC[C@]3(C)[C@@H]([C@H](C)COC(=O)NS(=O)(=O)c4ccc(N5CCCCC5)nc4)CC[C@@H]23)[C@@]2(C)CC[C@@H](O)C[C@@H]12 [Example 14]
pEC50: > 7.00
Emax: 270%

CC[C@H]1[C@@H](O)[C@@H]2[C@H](CC[C@]3(C)[C@@H]([C@H](C)COC(=O)NS(=O)(=O)c4ccc(OC(C)(C)C)cc4)CC[C@@H]23)[C@@]2(C)CC[C@@H](O)C[C@@H]12 [Example 30]
pEC50: > 7.00
Emax: 261%

CC[C@H]1[C@@H](O)[C@@H]2[C@H](CC[C@]3(C)[C@@H]([C@H](C)COC(=O)NS(=O)(=O)c4ccc(O)cc4)CC[C@@H]23)[C@@]2(C)CC[C@@H](O)C[C@@H]12 [Example 39]
pEC50: 6.00 to 7.00
Emax: 182%

CC[C@H]1[C@@H](O)[C@@H]2[C@H](CC[C@]3(C)[C@@H]([C@H](C)CCOC(=O)N4CCC(C)(CO)CC4)CC[C@@H]23)[C@@]2(C)CC[C@@H](O)C[C@@H]12 [Example 213]
pEC50: > 7.00
Emax: 460%

CC[C@H]1[C@@H](O)[C@@H]2[C@H](CC[C@]3(C)[C@@H]([C@H](C)CCOC(=O)NS(=O)(=O)N(C)C)CC[C@@H]23)[C@@]2(C)CC[C@@H](O)C[C@@H]12 [Example 50]
pEC50: > 7.00
Emax: 291%

CC[C@H]1[C@@H](O)[C@@H]2[C@H](CC[C@]3(C)[C@@H]([C@H](C)CCOC(=O)NS(=O)(=O)c4ccc5c(c4)OCO5)CC[C@@H]23)[C@@]2(C)CC[C@@H](O)C[C@@H]12 [Example 93]
pEC50: > 7.00
Emax: 288%

CCC(CC)S(=O)(=O)NC(=O)OCC[C@@H](C)[C@H]1CC[C@H]2[C@@H]3[C@H](O)[C@H](CC)[C@@H]4C[C@H](O)CC[C@]4(C)[C@H]3CC[C@]12C [Example 96]
pEC50: > 7.00
Emax: 388%

CCCCCNC(=O)OCC[C@@H](C)[C@H]1CC[C@H]2[C@@H]3[C@H](O)[C@H](CC)[C@@H]4C[C@H](O)CC[C@]4(C)[C@H]3CC[C@]12C [Example 150]
pEC50: 6.00 to 7.00
Emax: 303%

CC[C@H]1[C@@H](O)[C@@H]2[C@H](CC[C@]3(C)[C@@H]([C@H](C)CCOC(=O)N4CCN(c5ccccc5OC)CC4)CC[C@@H]23)[C@@]2(C)CC[C@@H](O)C[C@@H]12 [Example 170]
pEC50: > 7.00
Emax: 283%

CC[C@H]1[C@@H](O)[C@@H]2[C@H](CC[C@]3(C)[C@@H]([C@H](C)COC(=O)NS(=O)(=O)c4ccc(-c5ncccn5)cc4)CC[C@@H]23)[C@@]2(C)CC[C@@H](O)C[C@@H]12 [Example 36]
pEC50: > 7.00
Emax: 205%

CC[C@H]1[C@@H](O)[C@@H]2[C@H](CC[C@]3(C)[C@@H]([C@H](C)COC(=O)NS(=O)(=O)c4ccc5ncccc5c4)CC[C@@H]23)[C@@]2(C)CC[C@@H](O)C[C@@H]12 [Example 23]
pEC50: > 7.00
Emax: 182%

CC[C@H]1[C@@H](O)[C@@H]2[C@H](CC[C@]3(C)[C@@H]([C@H](C)CCCOC(=O)N4CCCCC4)CC[C@@H]23)[C@@]2(C)CC[C@@H](O)C[C@@H]12 [Example 165]
pEC50: 5.00 to 6.00
Emax: 158%

CC[C@H]1[C@@H](O)[C@@H]2[C@H](CC[C@]3(C)[C@@H]([C@H](C)CCOC(=O)N4CCCC4c4cccc(Cl)c4)CC[C@@H]23)[C@@]2(C)CC[C@@H](O)C[C@@H]12 (some centres unmarked) [Example 184]
pEC50: 5.00 to 6.00
Emax: 213%

CC[C@H]1[C@@H](O)[C@@H]2[C@H](CC[C@]3(C)[C@@H]([C@H](C)COC(=O)NS(=O)(=O)c4ccc(N5CCC(C)(C)CC5)cc4)CC[C@@H]23)[C@@]2(C)CC[C@@H](O)C[C@@H]12 [Example 20]
pEC50: > 7.00
Emax: 203%

CC[C@H]1[C@@H](O)[C@@H]2[C@H](CC[C@]3(C)[C@@H]([C@H](C)CCOC(=O)NS(=O)(=O)C4CCCCC4)CC[C@@H]23)[C@@]2(C)CC[C@@H](O)C[C@@H]12 [Example 104-a]
pEC50: > 7.00
Emax: 242%

CC[C@H]1[C@@H](O)[C@@H]2[C@H](CC[C@]3(C)[C@@H]([C@H](C)COC(=O)NS(=O)(=O)c4ccc(-n5cnnn5)cc4)CC[C@@H]23)[C@@]2(C)CC[C@@H](O)C[C@@H]12 [Example 44-e]
pEC50: 6.00 to 7.00
Emax: 204%

CC[C@H]1[C@@H](O)[C@@H]2[C@H](CC[C@]3(C)[C@@H]([C@H](C)CCOC(=O)NC4CCC4)CC[C@@H]23)[C@@]2(C)CC[C@@H](O)C[C@@H]12 [Example 133]
pEC50: > 7.00
Emax: 283%

CC[C@H]1[C@@H](O)[C@@H]2[C@H](CC[C@]3(C)[C@@H]([C@H](C)CCOC(=O)NS(=O)(=O)c4cnccn4)CC[C@@H]23)[C@@]2(C)CC[C@@H](O)C[C@@H]12 [Example 99]
pEC50: 5.00 to 6.00
Emax: 51%

CC[C@H]1[C@@H](O)[C@@H]2[C@H](CC[C@]3(C)[C@@H]([C@H](C)CCCOC(=O)NS(=O)(=O)C(C)(C)C)CC[C@@H]23)[C@@]2(C)CC[C@@H](O)C[C@@H]12 [Example 117]
pEC50: 6.00 to 7.00
Emax: 365%

CC[C@H]1[C@@H](O)[C@@H]2[C@H](CC[C@]3(C)[C@@H]([C@H](C)CCCOC(=O)NS(=O)(=O)C4CCCC4)CC[C@@H]23)[C@@]2(C)CC[C@@H](O)C[C@@H]12 [Example 120]
pEC50: 6.00 to 7.00
Emax: 485%

CC[C@H]1[C@@H](O)[C@@H]2[C@H](CC[C@]3(C)[C@@H]([C@H](C)CCOC(=O)N[C@H](C(=O)OC)C(C)C)CC[C@@H]23)[C@@]2(C)CC[C@@H](O)C[C@@H]12 [Example 154]
pEC50: 6.00 to 7.00
Emax: 138%

CC[C@H]1[C@@H](O)[C@@H]2[C@H](CC[C@]3(C)[C@@H]([C@H](C)CCOC(=O)Nc4cncc(Cl)c4)CC[C@@H]23)[C@@]2(C)CC[C@@H](O)C[C@@H]12 [Example 194]
pEC50: 5.00 to 6.00
Emax: 170%

CC[C@H]1[C@@H](O)[C@@H]2[C@H](CC[C@]3(C)[C@@H]([C@H](C)CCOC(=O)N4CCC(Cc5ccccc5)CC4)CC[C@@H]23)[C@@]2(C)CC[C@@H](O)C[C@@H]12 [Example 161]
pEC50: 6.00 to 7.00
Emax: 226%

CC[C@H]1[C@@H](O)[C@@H]2[C@H](CC[C@]3(C)[C@@H]([C@H](C)CCOC(=O)NS(=O)(=O)N4CCCC4)CC[C@@H]23)[C@@]2(C)CC[C@@H](O)C[C@@H]12 [Example 51]
pEC50: > 7.00
Emax: 218%

CC[C@H]1[C@@H](O)[C@@H]2[C@H](CC[C@]3(C)[C@@H]([C@H](C)CCOC(=O)N4CCC[C@@H](CO)C4)CC[C@@H]23)[C@@]2(C)CC[C@@H](O)C[C@@H]12 [Example 204]
pEC50: > 7.00
Emax: 310%

CC[C@H]1[C@@H](O)[C@@H]2[C@H](CC[C@]3(C)[C@@H]([C@H](C)CCOC(=O)NS(=O)(=O)Cc4ccccc4)CC[C@@H]23)[C@@]2(C)CC[C@@H](O)C[C@@H]12 [Example 56]
pEC50: > 7.00
Emax: 326%

CC[C@H]1[C@@H](O)[C@@H]2[C@H](CC[C@]3(C)[C@@H]([C@H](C)COC(=O)NS(=O)(=O)c4ccc(N5CCC(F)(F)CC5)cc4)CC[C@@H]23)[C@@]2(C)CC[C@@H](O)C[C@@H]12 [Example 21]
pEC50: > 7.00
Emax: 225%

CC[C@H]1[C@@H](O)[C@@H]2[C@H](CC[C@]3(C)[C@@H]([C@H](C)CCOC(=O)NS(=O)(=O)c4ccccc4C(F)(F)F)CC[C@@H]23)[C@@]2(C)CC[C@@H](O)C[C@@H]12 [Example 80]
pEC50: 6.00 to 7.00
Emax: 363%

CC[C@H]1[C@@H](O)[C@@H]2[C@H](CC[C@]3(C)[C@@H]([C@H](C)CCOC(=O)Nc4ccc(C(C)(C)C)cc4)CC[C@@H]23)[C@@]2(C)CC[C@@H](O)C[C@@H]12 [Example 166]
pEC50: 5.00 to 6.00
Emax: 30%
